# Data taken from ChEMBL document CHEMBL4130359, “Indazole-based ligands for estrogen-related receptor α as potential anti-diabetic agents” (Eur J Med Chem, 2017).
# Experiments:
# Rattus norvegicus [1] = assay: Antidiabetic activity in Zucker rat sub-chronic fa/fa prediabetic model assessed as fasting blood glucose level at 1 mg/kg, po qd for 31 days measured on day 29 post dose (reference value: 163 +/- 9.2 mg/dl); assay type: functional
# Rattus norvegicus [2] = assay: Toxicity in […] chronic ob/ob model assessed as change in body weight at 10 mg/kg, po qd for 28 days measured on day 1 to 28 during compound dosing (reference value: 9.9 +/- 1.27 g); assay type: organism-based; conditions: in vivo, 672 h
# [3] = AUC (0 to 24 hrs) in […] model at 50 mg/kg, po qd for 28 days measured on day 28 post last dose; assay type: ADME, organism-based; set-up: dose 50 mg/kg, time < 24 hr, route oral; conditions: in vivo
# Rattus norvegicus [4] = assay: Antidiabetic activity in Zucker rat sub-chronic fa/fa prediabetic model assessed as increase in serum adiponectin level at 50 mg/kg, po qd for 4 days by ELISA relative to control; assay type: functional
# Rattus norvegicus [5] = assay: Antidiabetic activity in Zucker rat sub-chronic fa/fa prediabetic model assessed as serum adiponectin level at 3 mg/kg, po qd for 4 days by ELISA (reference value: 9.1%); assay type: functional
# Rattus norvegicus [6] = assay: Effect on ACSS1 gene expression in epididymal white adipose tissue of Zucker rat sub-chronic fa/fa prediabetic model at 10 mg/kg, po qd for 15 days by microarray analysis relative to control; assay type: functional
# Rattus norvegicus [7] = assay: Effect on NDUFV2 gene expression in epididymal white adipose tissue of Zucker rat sub-chronic fa/fa prediabetic model at 10 mg/kg, po qd for 15 days by microarray analysis relative to control; assay type: functional
# [8] = Terminal half life in ob/ob mouse at 18 mg/kg administered via oral gavage by LC-MS analysis; assay type: ADME, organism-based; conditions: in vivo, read-out: beta t1/2 (converted)
# [9] = AUC (0 to 24 hrs) in […] model at 50 mg/kg, po qd measured on day 1 post dose; assay type: ADME, organism-based; set-up: dose 50 mg/kg, time < 24 hr, route oral; conditions: in vivo
# Rattus norvegicus [10] = assay: Antidiabetic activity in Zucker rat sub-chronic fa/fa prediabetic model assessed as increase in serum adiponectin level at 50 mg/kg, po qd for 32 days by ELISA relative to control; assay type: functional
# Rattus norvegicus [11] = assay: Toxicity in Zucker rat sub-chronic fa/fa prediabetic model assessed as epididymal white adipose tissue weight at 3 mg/kg, po qd for 31 days measured on day 32 (reference value: 13.9 +/- 0.6 g); assay type: organism-based; conditions: in vivo, 744 h
# Rattus norvegicus [12] = assay: Effect on STAT3 gene expression in epididymal white adipose tissue of Zucker rat sub-chronic fa/fa prediabetic model at 10 mg/kg, po qd for 15 days by microarray analysis relative to control; assay type: functional
# Rattus norvegicus [13] = assay: Effect on ECSIT gene expression in epididymal white adipose tissue of Zucker rat sub-chronic fa/fa prediabetic model at 10 mg/kg, po qd for 15 days by microarray analysis relative to control; assay type: functional
# [14] = target: Steroid hormone receptor ERR2 (Homo sapiens, UniProt O95718); assay: Antagonist activity at recombinant GST-tagged human ERRbeta LBD assessed as inhibition of fluorescein-labeled coactivator peptide recruitment preincubated with enzyme followed by coactivator addition by LanthaScreen TR-FRET assay
# Rattus norvegicus [15] = assay: Toxicity in Zucker rat sub-chronic fa/fa prediabetic model assessed as serum ALT level at 3 mg/kg, po qd for 31 days measured on day 32 (reference value: 151 +/- 23 U/L); assay type: organism-based; conditions: in vivo, 744 h
# Rattus norvegicus [16] = assay: Toxicity in Zucker rat sub-chronic fa/fa prediabetic model assessed as change in body weight at 10 mg/kg, po qd for 29 days measured on day 1 to 29 during compound dosing (reference value: 140 +/- 7 g); assay type: organism-based; conditions: in vivo, 696 h
# Rattus norvegicus [17] = assay: Toxicity in […] chronic ob/ob model assessed as change in body weight at 3 mg/kg, po qd for 28 days measured on day 1 to 28 during compound dosing (reference value: 9.9 +/- 1.27 g); assay type: organism-based; conditions: in vivo, 672 h
# Rattus norvegicus [18] = assay: Effect on PIAS1 gene expression in epididymal white adipose tissue of Zucker rat sub-chronic fa/fa prediabetic model at 10 mg/kg, po qd for 15 days by microarray analysis relative to control; assay type: functional
# Rattus norvegicus [19] = assay: Antidiabetic activity in Zucker rat sub-chronic fa/fa prediabetic model assessed as fasting blood glucose level at 50 mg/kg, po qd for 31 days measured on day 29 post dose (reference value: 163 +/- 9.2 mg/dl); assay type: functional
# Rattus norvegicus [20] = assay: Effect on RRAS2 gene expression in epididymal white adipose tissue of Zucker rat sub-chronic fa/fa prediabetic model at 10 mg/kg, po qd for 15 days by microarray analysis relative to control; assay type: functional
# Rattus norvegicus [21] = assay: Toxicity in Zucker rat sub-chronic fa/fa prediabetic model assessed as serum creatinine level at 50 mg/kg, po qd for 31 days measured on day 32 (reference value: 0.71 +/- 0.07 mg/dl); assay type: organism-based; conditions: in vivo, 744 h
# Rattus norvegicus [22] = assay: Effect on IMPA2 gene expression in epididymal white adipose tissue of Zucker rat sub-chronic fa/fa prediabetic model at 10 mg/kg, po qd for 15 days by microarray analysis relative to control; assay type: functional
# [23] = AUC (0 to 24 hrs) in Zucker rat sub-chronic fa/fa prediabetic model at 50 mg/kg, po qd measured on day 1 post dose; assay type: ADME, organism-based; set-up: dose 50 mg/kg, time < 24 hr, route oral; conditions: in vivo
# [24] = Cmax in Zucker rat sub-chronic fa/fa prediabetic model at 10 mg/kg, po qd measured on day 1 post dose; assay type: ADME, organism-based; set-up: dose 10 mg/kg, route oral; conditions: in vivo
# Rattus norvegicus [25] = assay: Toxicity in Zucker rat sub-chronic fa/fa prediabetic model assessed as serum BUN level at 10 mg/kg, po qd for 31 days measured on day 32 (reference value: 28.3 +/- […]); assay type: organism-based; conditions: in vivo, 744 h
# [26] = target: Oxysterols receptor LXR-alpha (Homo sapiens, UniProt Q13133); assay: Antagonist activity at recombinant GST-tagged human LXRalpha LBD assessed as inhibition of TO901317-induced fluorescein-labeled coactivator peptide recruitment preincubated with enzyme followed by coactivator addition by LanthaScreen TR-FRET assay
# Estrogen receptor = Estrogen receptor (Homo sapiens, UniProt P03372); assay: Inhibition of fluormone ES2 green binding to recombinant full length human ERalpha expressed in insect cells by fluorescence polarization assay
# Rattus norvegicus [27] = assay: Effect on LPIN2 gene expression in epididymal white adipose tissue of Zucker rat sub-chronic fa/fa prediabetic model at 10 mg/kg, po qd for 15 days by microarray analysis relative to control; assay type: functional
# Rattus norvegicus [28] = assay: Antidiabetic activity in Zucker rat sub-chronic fa/fa prediabetic model assessed as increase in serum adiponectin level administered orally once daily for 32 days by ELISA; assay type: functional, organism-based
# Rattus norvegicus [29] = assay: Effect on CD3D gene expression in epididymal white adipose tissue of Zucker rat sub-chronic fa/fa prediabetic model at 10 mg/kg, po qd for 15 days by microarray analysis relative to control; assay type: functional
# [30] = Cmax in Zucker rat sub-chronic fa/fa prediabetic model at 3 mg/kg, po qd measured on day 1 post dose; assay type: ADME, organism-based; set-up: dose 3 mg/kg, route oral; conditions: in vivo
# Rattus norvegicus [31] = assay: Effect on PPP2R5B gene expression in epididymal white adipose tissue of Zucker rat sub-chronic fa/fa prediabetic model at 10 mg/kg, po qd for 15 days by microarray analysis relative to control; assay type: functional
# Oxysterols receptor LXR-alpha, sequence (Q13133 whole entry, the tested form may be a part): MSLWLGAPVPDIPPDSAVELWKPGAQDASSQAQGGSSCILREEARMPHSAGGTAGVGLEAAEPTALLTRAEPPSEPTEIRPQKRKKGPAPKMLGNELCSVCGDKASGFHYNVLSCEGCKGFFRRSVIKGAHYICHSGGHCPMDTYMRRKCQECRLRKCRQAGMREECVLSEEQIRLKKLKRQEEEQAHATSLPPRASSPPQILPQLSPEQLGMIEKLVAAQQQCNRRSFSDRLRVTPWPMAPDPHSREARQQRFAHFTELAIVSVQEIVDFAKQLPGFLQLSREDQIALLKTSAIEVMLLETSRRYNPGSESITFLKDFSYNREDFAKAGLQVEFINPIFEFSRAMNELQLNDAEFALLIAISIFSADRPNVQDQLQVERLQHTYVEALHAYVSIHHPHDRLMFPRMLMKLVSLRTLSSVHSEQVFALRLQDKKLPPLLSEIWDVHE
# Estrogen receptor, sequence (P03372 whole entry): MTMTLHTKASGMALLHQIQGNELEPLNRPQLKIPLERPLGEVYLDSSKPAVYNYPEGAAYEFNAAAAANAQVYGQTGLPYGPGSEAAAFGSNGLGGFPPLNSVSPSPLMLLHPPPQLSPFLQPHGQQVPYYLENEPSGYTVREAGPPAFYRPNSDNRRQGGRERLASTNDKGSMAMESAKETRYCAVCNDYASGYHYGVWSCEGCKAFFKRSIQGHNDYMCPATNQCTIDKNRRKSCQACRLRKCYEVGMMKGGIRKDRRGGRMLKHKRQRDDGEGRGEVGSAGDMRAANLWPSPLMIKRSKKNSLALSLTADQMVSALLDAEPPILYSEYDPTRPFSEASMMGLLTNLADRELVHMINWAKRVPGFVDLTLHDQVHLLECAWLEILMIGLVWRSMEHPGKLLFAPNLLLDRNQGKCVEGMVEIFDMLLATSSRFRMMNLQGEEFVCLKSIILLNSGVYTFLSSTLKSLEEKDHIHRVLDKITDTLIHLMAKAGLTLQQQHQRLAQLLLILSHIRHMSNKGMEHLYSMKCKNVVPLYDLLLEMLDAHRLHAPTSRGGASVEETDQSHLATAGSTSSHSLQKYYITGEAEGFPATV
# Steroid hormone receptor ERR2, sequence (O95718 whole entry, the tested form may be a part): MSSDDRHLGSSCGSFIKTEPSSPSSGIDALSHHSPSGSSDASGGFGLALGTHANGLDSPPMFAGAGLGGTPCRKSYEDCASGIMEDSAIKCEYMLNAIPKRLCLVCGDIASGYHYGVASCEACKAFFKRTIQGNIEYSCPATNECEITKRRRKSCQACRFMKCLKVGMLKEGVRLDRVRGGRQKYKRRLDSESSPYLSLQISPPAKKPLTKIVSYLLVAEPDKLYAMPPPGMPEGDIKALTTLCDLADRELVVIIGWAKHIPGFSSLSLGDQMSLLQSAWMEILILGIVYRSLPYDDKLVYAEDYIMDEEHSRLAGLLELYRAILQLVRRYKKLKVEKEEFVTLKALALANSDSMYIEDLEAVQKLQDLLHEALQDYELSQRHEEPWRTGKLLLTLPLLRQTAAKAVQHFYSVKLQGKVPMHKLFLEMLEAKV
smiles,measurement,setting,value
CN1CC[C@@H](N2C(=O)S/C(=C\c3ccc4c(cnn4Cc4ccc(Cl)cc4C(F)(F)F)c3)C2=O)[C@H](F)C1,Activity,Rattus norvegicus [1],123 mg/dL
same,Activity,Rattus norvegicus [2],8.7 g
same,AUC at 24 h,[3],31600 ng·h/mL
same,fold change (FC),Rattus norvegicus [4],1.9
same,Activity,Rattus norvegicus [5],11.1%
same,fold change (FC),Rattus norvegicus [6],-1.893
same,fold change (FC),Rattus norvegicus [7],1.44
same,half-life,[8],8.1 h
same,AUC(0-t) at 24 h,[9],16900 ng·h/mL
same,fold change (FC),Rattus norvegicus [10],3.3
same,Activity,Rattus norvegicus [11],17.8 g
same,fold change (FC),Rattus norvegicus [12],-1.405
same,fold change (FC),Rattus norvegicus [13],1.339
same,IC50,[14],> 10 µM
same,Activity,Rattus norvegicus [15],117 U/L
same,Activity,Rattus norvegicus [16],150 g
same,Activity,Rattus norvegicus [17],6.3 g
same,fold change (FC),Rattus norvegicus [18],-1.323
same,Activity,Rattus norvegicus [19],105 mg/dL
same,fold change (FC),Rattus norvegicus [20],1.235
same,Activity,Rattus norvegicus [21],0.54 mg/dL
same,fold change (FC),Rattus norvegicus [22],1.526
same,AUC(0-t) at 24 h,[23],92000 ng·h/mL
same,Cmax,[24],1570 ng/mL
same,Activity,Rattus norvegicus [25],26.9 mg/dL
same,IC50,[26],> 10 µM
same,IC50,Estrogen receptor,> 10 µM
same,fold change (FC),Rattus norvegicus [27],1.548
same,Activity,Rattus norvegicus [28],Dose-dependent effect
same,fold change (FC),Rattus norvegicus [29],-1.256
same,Cmax,[30],725 ng/mL
same,fold change (FC),Rattus norvegicus [31],1.276
